Test results reported in US8361510B2, “Nanogels for cellular delivery of therapeutics” (Georgia Tech Research Corporation, priority 2008, dated 2013).
Where no end group is shown, it is not given here.

How the values were obtained:
Type in all cases: cell-based
[1] = system: Hey cells; assay: Flow cytometry of nanogel binding/uptake; details: 0.8 mg/mL nanogels, four hours
Method: Flow cytometry. Hey cells were plated at 2.5×10^5 cells/well in a 12-well, cell culture plate. Cells were allowed to adhere overnight in an incubator at 37° C. in a 5% CO2 atmosphere. Cells were washed, and fresh medium was added containing YSA-pNIPMAm or SCR-pNIPMAm nanogels at a concentration of 0.8 mg/mL and incubated for four hours. Following incubation, the cells were washed with PBS and removed from the plate by Trypsin-EDTA treatment. The cells were washed with PBS and fixed with 2% (v/v) paraformaldehyde. Cells were analyzed using a LSR Flow Cytometer (BD Biosciences). Data analysis was carried out using FlowJo software.

[2] = system: Hey cells; assay: Trypan blue exclusion assay
Method: Toxicity Studies—Trypan blue exclusion assay. Hey cells were plated onto an 8-well chamber slide (1×10^4 cells/well) and allowed to adhere overnight at 37° C. and 5% CO2. The media was removed, the wells washed with PBS, and the medium replaced. PNIPMAm nanogels, YSA-conjugated nanogels, and SCR-conjugated nanogels were added to cells and incubated for 72 h. Untreated cells were used as controls. After 72 h, the cells washed with PBS, and a 1:1 solution of trypan blue was added to each well. After 1 min, the trypan blue was removed, the cells were washed with PBS, fixed with 2% (v/v) paraformaldehyde, and air dried. Each well was then viewed via bright field microscopy to determine the number of stained (dead) versus unstained cells. Five fields were viewed for each treatment.

[3] = system: EGFR; assay: EGFR expression by immunoblotting in Hey cells; details: Example 2
Method: Immunoblotting. Hey cells were plated into 6-well plates (5×10^5/well) and allowed to adhere overnight at 37° C., 5% CO2. The cells were lysed with 100 μL of lysis buffer (50 mM Tris-HCl, pH 7.5, 150 mM NaCl, 2 mM EDTA (Fisher), 2 mM EGTA (Fisher), 1 mM sodium orthovanadate, 2.5 mM sodium pyrophosphate, 1 mM β-gycerolphosphate, 1 mM phenylmethanesulfonyl fluoride, 10 μg/mL aprotinin, 10 μg/mL leupeptin, 1% Triton X-100, and 5% glycerol), and the cell lysates sonicated four times for five seconds each. The lysates were cleared by centrifugation at 11,000×g rcf for […] at 4° C. Cell lysates were prepared for analysis by the addition of an equal volume of Laemmli 2× sample buffer. The samples were heated to 95° C. for […] to denature the proteins. The proteins were separated on a 10% SDS-PAGE gel and transferred onto nitrocellulose. The blots were blocked with either 5% nonfat dry milk (NFDM) or 5% bovine serum albumin (BSA) in 10 mM Tris-buffered saline, pH 7.5 plus 1% Tween 20 (TBST, BioRad) for 1 hour at room temperature. The blots were probed with anti-EGFR antibody (Cell Signaling, Danvers, Mass.; cat. no. 4405) or with a β-actin antibody (Millipore, Billerica, Mass.; Mab1501) diluted in 5% NFDM or 5% BSA overnight, with shaking at 4° C. For EphA2 detection, the blots were probed with an anti-EphA2 polyclonal antibody (Santa Cruz Biotechnology, Santa Cruz, Calif.; sc-294). The blots were washed three times with TBST and probed with goat anti-rabbit IgG (Santa Cruz, sc-2004) or with goat anti-mouse IgG (Santa Cruz, sc-2005) linked to horseradish peroxidase (HRP). Bands were visualized on film (Pierce) using the ECL reagent, SuperSignal West Pico™ (Pierce).
As described above, we chose siRNA targeting EGFR; knockdown of this receptor is non-lethal, but has clinical relevance in the treatment of drug resistant ovarian carcinomas. To determine if we could effectively knockdown EGFR in vitro, EGFR siRNA was encapsulated at a concentration of 16.6 μg of EGFR siRNA/mg of nanogels, using the loading technique described above. […]

[4] = system: Hey cells; assay: Chemosensitization to docetaxel (Tox8), Hey cells; details: control treatments
Method: Treatment with docetaxel. Hey or SK-OV-3 cells were plated in 96-well cell culture plates at a concentration of 1×10^4 cells/well. Hey or SK-OV-3 cells were subjected to nanogel delivery of siRNA at nanogel concentrations of 1000, 100, 10, and 1 μg/mL. Forty-eight hours after siRNA delivery, docetaxel was added to Hey or SK-OV-3 cells at concentrations ranging from 0.01-1000 nM. Treatment wells were set up in triplicate, and the cells were incubated with docetaxel for an additional 4 days. After treatment, the cells were washed with PBS, and 100 μL of medium was added back to the wells. To this, 10 μL of Tox8 was added to determine cell viability. The cells were incubated with the Tox8 reagent according to the manufacturer's instructions. The fluorescence was measured ([…]) by a Spectramax Gemini Fluorescence Microplate Reader (Molecular Devices, Sunnyvale, Calif.). Wells without cells but with Tox8 were used as controls and subtracted from all treatments as background. Each experiment was performed in duplicate.
Statistical analysis. Statistical analysis of the immunoblot data was performed using a non-parametric ANOVA (Kruskal Wallis) test. If significance was indicated, a Dunn's post-test was used to determine significance between groups. […]

## SCR-conjugated nanogels: nanogels bearing the scrambled peptide DYPSMAMYSPSVC (SEQ ID NO 2), control (also: conjugated to nanogels) [reference compound]
[1]
  cell fluorescence relative to cell autofluorescence: only slightly greater than the cell autofluorescence background signal
[2]
  blue (dead) cells: not observed

## YSAYPDSVPMMSC (listed as Homo sapiens) [YSA peptide]
[3]
  EGFR expression of control treatments compared to untreated cells: diminished EGFR expression
[4]
  sensitivity to docetaxel versus untreated controls: increased sensitivity to docetaxel
